Experimental data as given in patent US20100273722A1, “MODIFIED MINIATURE PROTEINS” (Yale University, priority 2007, published 2010).
“And” between values parts separate entries of the source, which are not always exact repeats. Identical values can stand only once. Like-named read-outs stand apart in the source and are kept apart here. Residues, ends and D or L forms follow the SMILES beside them.

Columns and labels:
[1] = biological target: Fyn SH3 domain-GST fusion protein (Homo sapiens, UniProt P06241); test: Fluorescence polarization direct binding assay, Fyn SH3; conditions: 50 nM fluorescently labeled ligand, PBS pH 7.4; read-out: Kd, Fyn SH3
Fyn SH3 domain-GST fusion protein, sequence (P06241 81-142): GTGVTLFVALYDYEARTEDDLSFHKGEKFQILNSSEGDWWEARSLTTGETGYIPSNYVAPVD
Experimental: (§1) Polarization was measured by excitation with vertically polarized light at 485 nm and the fluorescence emission detected at 530 nm in both the vertical and horizontal directions. An average of five measurements were recorded for each well. Samples were equilibrated at room temperature for 25 min before analysis, a time sufficient for the binding reactions to reach equilibrium. The polarization data were fit using Kaleidagraph v3.6 software to Eq. 5, which is derived from first principles without assumptions. […] In this equation, Pobs is the observed polarization value at any given concentration of target protein (GST•SH3 domain). Pmin is the polarization of peptide^Flu at 50 nM in the absence of target protein. Pmax is the maximum polarization of peptide^Flu at saturation with target protein. Kd is the equilibrium dissociation constant. […] In these cases a lower limit Kd was estimated by setting Pmax equal to the observed polarization at the highest target protein concentration tested, which was often limited by solubility. […] Free fits are shown. Kd values were estimated as described. […] In several cases, the plots of polarization versus [SH3 domain] began to increase at high [SH3 domain] (>50 micromolar), perhaps because of a second binding event. In these cases (indicated by an asterisk (*) in Table 5), data above 50 micromolar target protein was excluded during the curve fits.

[2] = biological target: T1, c-Src SH3 domain-GST fusion protein (Gallus gallus, UniProt P00523); conditions: literature value; read-out: Kd, c-Src SH3 (reported); cited from earlier work
[3] = biological target: Hck SH3 domain-GST fusion protein (Homo sapiens, UniProt P08631); test: Fluorescence polarization direct binding assay, Hck SH3; conditions: 50 nM fluorescently labeled ligand, PBS pH 7.4; read-out: Kd, Hck SH3
Hck SH3 domain-GST fusion protein, sequence (P08631 77-137): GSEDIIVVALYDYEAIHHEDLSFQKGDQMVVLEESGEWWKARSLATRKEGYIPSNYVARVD
Experimental: (§2) Polarization was measured by excitation with vertically polarized light at 485 nm and the fluorescence emission detected at 530 nm in both the vertical and horizontal directions. An average of five measurements were recorded for each well. Samples were equilibrated at room temperature for 25 min before analysis, a time sufficient for the binding reactions to reach equilibrium. The polarization data were fit using Kaleidagraph v3.6 software to Eq. 5, which is derived from first principles without assumptions. […] In this equation, Pobs is the observed polarization value at any given concentration of target protein (GST•SH3 domain). Pmin is the polarization of peptide^Flu at 50 nM in the absence of target protein. Pmax is the maximum polarization of peptide^Flu at saturation with target protein. Kd is the equilibrium dissociation constant. […] Free fits are shown. Kd values were estimated as described.

[4] = biological target: T1, c-Src SH3 domain-GST fusion protein; test: Fluorescence polarization direct binding assay, c-Src SH3; parameters: species or system chicken; conditions: 50 nM fluorescently labeled ligand, PBS pH 7.4; read-out: Kd, c-Src SH3
Experimental: as §2

[5] = biological target: Lyn SH3 domain-GST fusion protein (Homo sapiens, UniProt P07948); test: Fluorescence polarization direct binding assay, Lyn SH3; conditions: 50 nM fluorescently labeled ligand, PBS pH 7.4; read-out: Kd, Lyn SH3
Lyn SH3 domain-GST fusion protein, sequence (P07948 62-122): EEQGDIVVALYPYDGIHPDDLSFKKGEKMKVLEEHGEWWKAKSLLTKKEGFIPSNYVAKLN
Experimental: as §1

c-Src SH3^P133L = c-Src SH3^P133L (Gallus gallus, UniProt P00523, P133L); test: Fluorescence polarization direct binding assay, c-Src SH3^P133L; parameters: species or system chicken; conditions: 50 nM fluorescently labeled ligand; lower limit estimated; read-out: Kd, c-Src P133L SH3
Experimental: as §2

Hck kinase = biological target: T2, Hck kinase (Homo sapiens, UniProt P08631); test: Hck kinase activation, NADH-coupled assay; type: biochemical; conditions: Activator 50 micromolar
T2 construct: His6 (N); made in house; host or cells: HighFive insect cells, co-infected with Hck and Csk baculovirus
T2 sequence (P08631 whole entry): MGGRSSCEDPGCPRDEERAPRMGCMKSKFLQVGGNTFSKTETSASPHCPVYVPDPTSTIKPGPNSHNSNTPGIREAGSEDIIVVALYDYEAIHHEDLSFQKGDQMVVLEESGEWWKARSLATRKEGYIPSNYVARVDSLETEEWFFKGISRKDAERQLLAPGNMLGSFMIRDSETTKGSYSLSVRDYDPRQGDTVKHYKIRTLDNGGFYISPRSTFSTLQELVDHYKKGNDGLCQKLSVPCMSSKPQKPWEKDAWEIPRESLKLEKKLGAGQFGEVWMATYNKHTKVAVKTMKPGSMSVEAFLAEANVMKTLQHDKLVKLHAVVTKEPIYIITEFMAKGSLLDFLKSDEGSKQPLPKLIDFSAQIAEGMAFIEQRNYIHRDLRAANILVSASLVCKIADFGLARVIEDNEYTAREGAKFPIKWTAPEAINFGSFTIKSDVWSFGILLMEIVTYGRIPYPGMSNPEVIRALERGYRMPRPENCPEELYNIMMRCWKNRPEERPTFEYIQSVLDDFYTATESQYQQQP
Experimental: Activation of Hck kinase was measured using a validated NADH-coupled assay as described. Briefly, purified Hck kinase (15 micromolar) was first pre-incubated with 500 micromolar ATP and 20 mM MgCl2 for about 30 min on ice to initiate autophosphorylation of Y416. The autophosphorylated product (0.55 micromolar final concentration) was then incubated in Hck Reaction Buffer (20 mM MgCl2, 0.1 mM DTT, 20 μg/mL BSA, 100 mM HEPES (pH 7.5)) for 10 min at room temperature with the indicated concentration of Nef or miniature protein. At this time the remaining assay components (1 mM PEP, 0.2 mM NADH, 6 U pyruvate kinase (Type II from rabbit muscle, Sigma), 6 U L-lactic dehydrogenase (Type II from rabbit muscle, Sigma), 600 micromolar substrate peptide, and 500 micromolar ATP) were added to initiate the reaction (total volume 200 microliters) and the absorbance at 340 nm was monitored every 10 sec for 10 min using a Beckman DU 730 UVN is Spectrophotomer. The activation constant Kact for each ligand was calculated from the initial rate as a function of ligand concentration as previously described, using Eq. 6. Fold activation was calculated by dividing the rate in the presence of ligand by the rate in the absence of ligand.
va=Vact[L]/(Kact±[L]) Equation 6.
In this equation va is velocity measured in the presence of ligand minus the velocity measured in its absence; Vact is the maximal activated velocity minus the velocity measured in the absence of ligand; [L] is the concentration of activator and Kact is concentration of activator at half-maximal activation.

[6] = biological target: non-Src family SH3 domain (Ab1, Nck1, Grb2, Abp1); test: Fluorescence polarization binding to non-Src family SH3 domains; conditions: data not shown
Experimental: Fluorescence polarization assays were performed with 50 nM fluorescently labeled miniature protein and the indicated SH3 domain-GST fusion protein in PBS (1 mM KH2PO4, 155 mM NaCl, 3 mM Na2HPO4 (pH 7.4)) supplemented with 1 mM DTT and using the Analyst™ AD 96·384 automated fluorescence plate reader (LjL Biosystems). Binding reactions (32 microliters) were analyzed within 384-well assay plates (Corning Inc., Plate #3654) using settings defined by Criterion Host software v.2.00.11 and z height 1 mm. Polarization was measured by excitation with vertically polarized light at 485 nm and the fluorescence emission detected at 530 nm in both the vertical and horizontal directions. An average of five measurements were recorded for each well. Samples were equilibrated at room temperature for 25 min before analysis, a time sufficient for the binding reactions to reach equilibrium. […]
In this equation, Pobs is the observed polarization value at any given concentration of target protein (GST•SH3 domain). […] The observed binding free energy, ΔG, was calculated from the relationship ΔG=−RT ln Kd^−1, where R is the universal gas constant (1.987×10^−3 kcal mol^−1 K^−1) and T is the temperature in Kelvin (298 K). Fluorescence polarization analysis of the binding of fluorescently labeled miniature proteins and Peptide 1 to c-Src SH3^P133L are shown in FIG. 11. […]

[7] = biological target: Lck SH3 domain-GST fusion protein (Homo sapiens, UniProt P06239); test: Fluorescence polarization direct binding assay, Lck SH3; conditions: 50 nM fluorescently labeled ligand, PBS pH 7.4; read-out: Kd, Lck SH3
Lck SH3 domain-GST fusion protein, sequence (P06239 62-128): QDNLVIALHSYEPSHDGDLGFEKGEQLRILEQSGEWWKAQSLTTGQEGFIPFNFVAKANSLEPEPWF
Experimental: as §1

- Kd [1]: 0.87 to 2 µM
- Kd [3]: 0.87 to 2 µM
- Kd [4]: 1.5 ± 0.1 µM
- Kd [5]: 0.87 to 2 µM
- Kd (c-Src SH3^P133L): > 20 µM
- Activity (Hck kinase): 33.9 ± 3.2 nmol/s
- Fold-Activation (Hck kinase; rate with ligand / rate without ligand): 3 and 3 ± 1
- Kd [6]: > 20 µM
- Kd [7]: > 20 µM
SMILES: CC(C)C[C@H](NC(=O)[C@H](CCCNC(=N)N)NC(=O)[C@@H]1CCCN1C(=O)[C@H](CCCNC(=N)N)NC(=O)[C@H](CC(N)=O)NC(=O)[C@H](CCCNC(=N)N)NC(=O)[C@@H]1CCCN1C(=O)[C@@H]1CCCN1C(=O)[C@H](CC(C)C)NC(=O)[C@@H]1CCCN1C(=O)[C@@H]1CCCN1C(=O)[C@H](C)N)C(N)=O [Peptide 1] (H-APPLPPRNRPRL-NH2)
- Kd [2]: 1.2 µM
